Data as given in US10350271B2, “Lipidated peptides for lowering blood glucose” (USTAV ORGANICKE CHEMIE A BIOCHEMIE AKADEMIE VED CR, V.V.I., priority 2014, dated 2019).
Numbered stars: 1 amine (or outer) side, 2 acyl side, 3 side chain; on linkers, the order of the positions; unused ones are H or OH. Side chains are listed from the residue outwards. Ends that are not written are not given here. Peptide text beside a SMILES is read from it. * marks the point of attachment. TTDA(Palmitoyl) = CCCCCCCCCCCCCCCC(=O)NCCCOCCOCCOCCCN*; γGlu = O=C(O)[C@H](CCC(=O)[*:2])N[*:1]; Palmitoyl = CCCCCCCCCCCCCCCC(=O)*; Suc = O=C(CCC(=O)[*:2])[*:1]

Legend:
C57BL/6 mice = experiment: Food intake in fasted mice after SC injection; type: in vivo; conditions: 5 mg/kg SC, 45 min after injection
Method in brief: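 Saline, PrRP or a lipidated analog was injected SC (1-10 mg/kg) after a 17 h fast with free water, animals housed singly.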

[1] = biological target: T1, human PrRP receptor GPR10 (Homo sapiens, UniProt P49683); experiment: Competitive binding in CHO cells transfected with human GPR10 (human 125I-PrRP31); conditions: for Ki: CHO cells, human 125I-PrRP31, read-out: Ki, GPR10 human receptor transfected in CHO cells; for % of PrRP31, GPR10 human receptor transfected in CHO cells: affinity relative to PrRP31
T1 construct: host or cells: CHO cells
T1 sequence (P49683 1-370): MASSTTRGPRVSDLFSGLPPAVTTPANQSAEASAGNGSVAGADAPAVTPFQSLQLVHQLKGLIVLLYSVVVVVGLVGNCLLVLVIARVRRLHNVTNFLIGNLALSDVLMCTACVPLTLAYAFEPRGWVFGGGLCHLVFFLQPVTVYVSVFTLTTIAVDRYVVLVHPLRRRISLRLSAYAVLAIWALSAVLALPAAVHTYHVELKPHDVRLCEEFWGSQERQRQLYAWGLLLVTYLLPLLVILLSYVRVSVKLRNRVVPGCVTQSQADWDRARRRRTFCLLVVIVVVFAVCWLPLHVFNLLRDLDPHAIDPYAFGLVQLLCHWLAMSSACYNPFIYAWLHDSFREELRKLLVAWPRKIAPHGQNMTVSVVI
Method in brief: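 Values from one-site nonlinear regression of displacement curves: analogs (final 10^-11 to 10^-4 mol·l^-1) competed with 125I-PrRP31 (final 5×10^-11 mol·l^-1) on adherent human GPR10 CHO cells. Binding ran 1 h at room temperature, pH 7.4 buffer with NaCl, MgCl2, CaCl2, glucose, BSA; cell-bound radioactivity counted after NaOH lysis.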

Wistar rats = experiment: Food intake in fasted rats after SC injection; type: in vivo; conditions: overnight fasted rats, compared to controls given vehicle
Method: NMRI mice, C57BL/6 mice, and Wistar rats (AnLab, Prague, Czech Republic) were housed in a temperature of 23° C. and a daily cycle of 12 h light and dark (light from 6:00). They were given ad libitum water and a standard chow diet that contained 25, 9 and 66% of calories of protein, fat and carbohydrate respectively. Energy content of the feed was 3.4 kcal/g (St-1, Mlýn Kocanda, Czech Republic). Db/db mice and their controls (C57BL/6 background) were obtained from Taconic (Denmark), housed under the same conditions as described above, and fed by Altromin (Taconic, Denmark). ZDF-Lepr^fa/Crl, diabetic fa/fa male rats were obtained from Charles River (France), housed under same conditions as described above, and fed with a Purina 5008 diet (IPS Product Supplies Limited, UK). All experiments followed the ethical guidelines for animal experiments and the law of the Czech Republic Nr. 246/1992.
In experiments with C57BL/6 mice or Wistar rats, food intake was measured with overnight fasted animals in individual cages. Food was withdrawn 17 hours prior to injection of lipidated analog of prolactin releasing peptide (PrRP); free access to water was maintained. The administration of either saline, PrRP, or lipidated analogs was performed by SC injection at doses of 1-10 mg/kg (which corresponded to a volume of 0.2 ml/mouse and 0.1 ml/100 g weight of rat). Fifteen minutes after the lipidated analog of prolactin releasing peptide (PrRP) administration, the mice were given pre-weighed food. The food was then weighed every 30 minutes for 5-10 hours. The administration of each dose was performed at least twice, and each group of mice consisted of at least 6 mice.

rat PrRP receptor = biological target: T2, rat PrRP receptor (Rattus norvegicus, UniProt Q64121); experiment: Competitive binding in RC-4B/C rat pituitary cells (125I-rat PrRP31); conditions: for % of PrRP31, RC-4B/C rat pituitary cells: affinity relative to PrRP31
T2 construct: host or cells: RC-4B/C rat pituitary cell line
T2 sequence (Q64121 1-370): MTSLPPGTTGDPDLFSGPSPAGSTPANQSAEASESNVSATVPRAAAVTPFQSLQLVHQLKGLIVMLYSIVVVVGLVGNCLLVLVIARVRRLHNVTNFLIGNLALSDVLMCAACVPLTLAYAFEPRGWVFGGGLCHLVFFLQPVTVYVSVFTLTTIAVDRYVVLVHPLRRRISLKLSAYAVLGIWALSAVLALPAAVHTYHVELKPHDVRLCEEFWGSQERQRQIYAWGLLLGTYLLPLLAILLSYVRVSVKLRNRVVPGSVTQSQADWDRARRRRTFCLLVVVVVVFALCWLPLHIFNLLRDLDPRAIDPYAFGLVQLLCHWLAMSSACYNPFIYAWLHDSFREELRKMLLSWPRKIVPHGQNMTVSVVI
Method in brief: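 Displacement of rat 125I-PrRP31 ([…]) by test analogs, 10^−11–10^−4 mol·l^−1, on whole RC-4B/C cells, 60 min RT. Bound counts measured by γ-counter in duplicate, ≥3 repeats, analyzed by nonlinear one-site binding regression.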

| Molecule | Food intake in mice % of saline-treated group (C57BL/6 mice) | Ki [1] | % of PrRP31, GPR10 human receptor transfected in CHO cells [1] | Food intake in rats (Wistar rats) | Ki (rat PrRP receptor; RC-4B/C cells, displacement of 125I-rat PrRP31, read-out: Ki, RC-4B/C rat pituitary cells ^25I-rat PrRP31) | % of PrRP31, RC-4B/C rat pituitary cells (rat PrRP receptor) |
| --- | --- | --- | --- | --- | --- | --- |
| CCCCCCCCCCCCCCCC(=O)NCCCC[C@H](NC(=O)[C@@H](NC(=O)[C@H](CCC(=O)O)NC(=O)[C@H](CCSC)NC(=O)[C@H](CO)NC(=O)[C@H](Cc1c[nH]cn1)NC(=O)[C@H](CCCNC(=N)N)NC(=O)[C@H](Cc1c[nH]cn1)NC(=O)[C@@H](NC(=O)[C@H](CCCNC(=N)N)NC(=O)[C@@H](N)CO)[C@@H](C)O)[C@@H](C)CC)C(=O)N[C@H](C(=O)N1CCC[C@H]1C(=O)N[C@@H](CC(=O)O)C(=O)N[C@H](C(=O)N[C@@H](CC(N)=O)C(=O)N1CCC[C@H]1C(=O)N[C@@H](C)C(=O)N[C@@H](Cc1c[nH]c2ccccc12)C(=O)N[C@@H](Cc1ccc(O)cc1)C(=O)N[C@@H](C)C(=O)N[C@@H](CO)C(=O)N[C@@H](CCCNC(=N)N)C(=O)NCC(=O)N[C@H](C(=O)N[C@@H](CCCNC(=N)N)C(=O)N1CCC[C@H]1C(=O)N[C@H](C(=O)NCC(=O)N[C@@H](CCCNC(=N)N)C(=O)N[C@@H](Cc1ccccc1)C(N)=O)C(C)C)[C@@H](C)CC)[C@@H](C)CC)[C@@H](C)O [Analog 48] (H-SRTHRHSMEIK(Palmitoyl)TPDINPAWYASRGIRPVGRF-NH2) | 13% | 6.37 ± 0.78 nM | 61% | significantly reduced |  |  |
| CCCCCCCCCCCCCCCC(=O)N[C@@H](CCC(=O)NCCCC[C@H](NC(=O)[C@@H](NC(=O)[C@H](CCC(=O)O)NC(=O)[C@H](CCSC)NC(=O)[C@H](CO)NC(=O)[C@H](Cc1c[nH]cn1)NC(=O)[C@H](CCC(=O)O)NC(=O)[C@H](Cc1c[nH]cn1)NC(=O)[C@@H](NC(=O)[C@H](CCC(=O)O)NC(=O)[C@@H](N)CO)[C@@H](C)O)[C@@H](C)CC)C(=O)N[C@H](C(=O)N1CCC[C@H]1C(=O)N[C@@H](CC(=O)O)C(=O)N[C@H](C(=O)N[C@@H](CC(N)=O)C(=O)N1CCC[C@H]1C(=O)N[C@@H](C)C(=O)N[C@@H](Cc1c[nH]c2ccccc12)C(=O)N[C@@H](Cc1ccc(O)cc1)C(=O)N[C@@H](C)C(=O)N[C@@H](CO)C(=O)N[C@@H](CCCNC(=N)N)C(=O)NCC(=O)N[C@H](C(=O)N[C@@H](CCCNC(=N)N)C(=O)N1CCC[C@H]1C(=O)N[C@H](C(=O)NCC(=O)N[C@@H](CCCNC(=N)N)C(=O)N[C@@H](Cc1ccccc1)C(N)=O)C(C)C)[C@@H](C)CC)[C@@H](C)CC)[C@@H](C)O)C(=O)O [Analog 56] (H-SETHEHSMEIK([γGlu-Palmitoyl])TPDINPAWYASRGIRPVGRF-NH2) | 10% | 5.66 ± 0.39 nM | 57% |  | 4.23 ± 2.11 nM | 57% |
| CCCCCCCCCCCCCCCC(=O)NCCCOCCOCCOCCCNC(=O)CCC(=O)NCCCC[C@H](NC(=O)[C@@H](NC(=O)[C@H](CCC(=O)O)NC(=O)[C@H](CCSC)NC(=O)[C@H](CO)NC(=O)[C@H](Cc1c[nH]cn1)NC(=O)[C@H](CCCNC(=N)N)NC(=O)[C@H](Cc1c[nH]cn1)NC(=O)[C@@H](NC(=O)[C@H](CCC(=O)O)NC(=O)[C@@H](N)CO)[C@@H](C)O)[C@@H](C)CC)C(=O)N[C@H](C(=O)N1CCC[C@H]1C(=O)N[C@@H](CC(=O)O)C(=O)N[C@H](C(=O)N[C@@H](CC(N)=O)C(=O)N1CCC[C@H]1C(=O)N[C@@H](C)C(=O)N[C@@H](Cc1c[nH]c2ccccc12)C(=O)N[C@@H](Cc1ccc(O)cc1)C(=O)N[C@@H](C)C(=O)N[C@@H](CO)C(=O)N[C@@H](CCCNC(=N)N)C(=O)NCC(=O)N[C@H](C(=O)N[C@@H](CCCNC(=N)N)C(=O)N1CCC[C@H]1C(=O)N[C@H](C(=O)NCC(=O)N[C@@H](CCCNC(=N)N)C(=O)N[C@@H](Cc1ccccc1)C(N)=O)C(C)C)[C@@H](C)CC)[C@@H](C)CC)[C@@H](C)O [Analog 58] (H-SETHRHSMEIK([Suc-TTDA(Palmitoyl)])TPDINPAWYASRGIRPVGRF-NH2; N-terminus assumed) | 7% |  | 103% |  |  | 575% |
| CCCCCCCCCCCCCCCC(=O)NCCCOCCOCCOCCCNC(=O)CCC(=O)NCCCC[C@H](NC(=O)[C@@H](NC(=O)[C@H](CCC(=O)O)NC(=O)[C@H](CCSC)NC(=O)[C@H](CO)NC(=O)[C@H](Cc1c[nH]cn1)NC(=O)[C@H](CCCNC(=N)N)NC(=O)[C@H](Cc1c[nH]cn1)NC(=O)[C@@H](NC(=O)[C@H](CCCNC(=N)N)NC(=O)[C@H](CO)NC(=O)CCC(=O)NCCCOCCOCCOCCCNC(=O)CCCCCCCCCCCCCCC)[C@@H](C)O)[C@@H](C)CC)C(=O)N[C@H](C(=O)N1CCC[C@H]1C(=O)N[C@@H](CC(=O)O)C(=O)N[C@H](C(=O)N[C@@H](CC(N)=O)C(=O)N1CCC[C@H]1C(=O)N[C@@H](C)C(=O)N[C@@H](Cc1c[nH]c2ccccc12)C(=O)N[C@@H](Cc1ccc(O)cc1)C(=O)N[C@@H](C)C(=O)N[C@@H](CO)C(=O)N[C@@H](CCCNC(=N)N)C(=O)NCC(=O)N[C@H](C(=O)N[C@@H](CCCNC(=N)N)C(=O)N1CCC[C@H]1C(=O)N[C@H](C(=O)NCC(=O)N[C@@H](CCCNC(=N)N)C(=O)N[C@@H](Cc1ccccc1)C(N)=O)C(C)C)[C@@H](C)CC)[C@@H](C)CC)[C@@H](C)O [Analog 59] ({TTDA(Palmitoyl)-Suc}-SRTHRHSMEIK([Suc-TTDA(Palmitoyl)])TPDINPAWYASRGIRPVGRF-NH2) | 23% | 32.4 ± 3.57 nM | 12% |  |  | 85% |
| SRAHQHSMETRTPDINPAWYTGRGIRPVGRF-NH2 [Rat PrRP31, reference compound] | 100% |  | 100% |  |  | 100% |
| TPDINPAWYTGRGIRPVGRF-NH2 [Rat PrRP20, reference compound] | 100% | 5.56 ± 0.7 nM | 70% |  |  | 143% |
